No end group written: not given here.
Columns and labels:
human red blood cells = test: Hemolysis assay, minimum hemolytic concentration; conditions: for Haemolysis on hRBC, MHC: 2.5% human red blood cells (final) in 10 mM phosphate, 150 mM NaCl, pH 7.4, 25 °C, 4 h, visual inspection; for MHC human red blood cells: supplement CSV
S. aureus COL (MRSA) = test: microbe, parasite or virus in culture; conditions: for MIC S. aureus, 12.5% MHB / MIC S. aureus, Full MHB: S. aureus COL (MRSA), 16–20 h at 37 °C; for MIC S. aureus, 12.5% MHB: 12.5% Müller–Hinton medium; for MIC S. aureus, Full MHB: full Müller–Hinton medium; for MIC S. aureus COL (MRSA): supplement CSV
Outline: (§1)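 Read-out was visible growth after MTT addition, the MIC being the lowest inhibitory peptide concentration. Bacteria grown to log phase in LB were exposed in MH medium to peptide from 64 μg/mL in twofold dilutions for 15-18h at 37°C.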

P. aeruginosa PAO1 = test: microbe, parasite or virus in culture; conditions: for MIC P. aeruginosa, 12.5% MHB / MIC P. aeruginosa, Full MHB: P. aeruginosa PAO1, 16–20 h at 37 °C; for MIC P. aeruginosa, 12.5% MHB: 12.5% Müller–Hinton medium; for MIC P. aeruginosa, Full MHB: full Müller–Hinton medium; for MIC P. aeruginosa PAO1: supplement CSV
Outline: as §1

K. pneumoniae NCTC 418 = test: microbe, parasite or virus in culture; conditions: for MIC K. pneumoniae, 12.5% MHB / MIC K. pneumoniae, Full MHB: K. pneumoniae NCTC 418, 16–20 h at 37 °C; for MIC K. pneumoniae, 12.5% MHB: 12.5% Müller–Hinton medium; for MIC K. pneumoniae, Full MHB: full Müller–Hinton medium; for MIC K. pneumoniae NCTC418: supplement CSV
Outline: as §1

A. baumannii ATCC19606 = test: microbe, parasite or virus in culture; conditions: for MIC A. baumannii, 12.5% MHB / MIC A. baumannii, Full MHB: A. baumannii ATCC19606, 16–20 h at 37 °C; for MIC A. baumannii, 12.5% MHB: 12.5% Müller–Hinton medium; for MIC A. baumannii, Full MHB: full Müller–Hinton medium; for MIC A. baumannii ATCC19606: supplement CSV
Outline: as §1

E. coli W3110 = test: microbe, parasite or virus in culture; conditions: for MIC E. coli, 12.5% MHB / MIC E. coli, Full MHB: E. coli W3110, 16–20 h at 37 °C, broth microdilution; for MIC E. coli, 12.5% MHB: 12.5% Müller–Hinton medium; for MIC E. coli, Full MHB: full Müller–Hinton medium; for MIC E. coli W3110: supplement CSV
Outline: as §1

Sequence	Haemolysis on hRBC, MHC (human red blood cells)	MHC human red blood cells (human red blood cells)	MIC S. aureus, 12.5% MHB (S. aureus COL (MRSA))	MIC S. aureus, Full MHB (S. aureus COL (MRSA))	MIC S. aureus COL (MRSA) (S. aureus COL (MRSA); 12.5% MH pH 7.4)	MIC S. aureus COL (MRSA) (S. aureus COL (MRSA); full MH pH 7.4)	MIC P. aeruginosa, 12.5% MHB (P. aeruginosa PAO1)	MIC P. aeruginosa, Full MHB (P. aeruginosa PAO1)	MIC P. aeruginosa PAO1 (P. aeruginosa PAO1; 12.5% MH pH 7.4)	MIC P. aeruginosa PAO1 (P. aeruginosa PAO1; full MH pH 7.4)	MIC K. pneumoniae, 12.5% MHB (K. pneumoniae NCTC 418)	MIC K. pneumoniae, Full MHB (K. pneumoniae NCTC 418)	MIC K. pneumoniae NCTC418 (K. pneumoniae NCTC 418; 12.5% MH pH 7.4)	MIC K. pneumoniae NCTC418 (K. pneumoniae NCTC 418; full MH pH 7.4)	MIC A. baumannii, 12.5% MHB (A. baumannii ATCC19606)	MIC A. baumannii, Full MHB (A. baumannii ATCC19606)	MIC A. baumannii ATCC19606 (A. baumannii ATCC19606; 12.5% MH pH 7.4)	MIC A. baumannii ATCC19606 (A. baumannii ATCC19606; full MH pH 7.4)	MIC E. coli, 12.5% MHB (E. coli W3110)	MIC E. coli, Full MHB (E. coli W3110)	other results
VDKPPYLPRPRPPRRIYNR [sr12Cterm-Onc] (VDKPPYLPRPRPPRRIYNR-NH2; also: residues 8-19 stereorandomized (1:1 L/D mixture))	>1000 µg/mL	>1000 µg/mL	>64 / 64 μg/mL	>64 / 64 μg/mL	64 µg/mL	>64 µg/mL	8 µg/mL	> 64 µg/mL	8 µg/mL	>64 µg/mL	8 µg/mL	16 µg/mL	8 µg/mL	16 µg/mL	8 µg/mL	32 µg/mL	8 µg/mL	32 µg/mL	8 µg/mL	16 µg/mL	MIC E. coli W3110 (E. coli W3110; 12.5% MH pH 7.4): 8 µg/mL; MIC E. coli W3110 (E. coli W3110; full MH pH 7.4): 16 µg/mL
VDKPPYLPRPRPPRRIYNR [srP45-Onc] (VDKPPYLPRPRPPRRIYNR-NH2; also: residues 4-5 (Pro-Pro) stereorandomized (1:1 L/D mixture))	>1000 µg/mL	>1000 µg/mL	>64 / 64 μg/mL	>64 / 64 μg/mL	64 µg/mL	>64 µg/mL	> 16 µg/mL	> 64 µg/mL	>16 µg/mL	>64 µg/mL	8 µg/mL	16 µg/mL	8 µg/mL	16 µg/mL	8 µg/mL	64 µg/mL	8 µg/mL	64 µg/mL	4 µg/mL	16 µg/mL	MIC E. coli W3110 (E. coli W3110; 12.5% MH pH 7.4): 4 µg/mL; MIC E. coli W3110 (E. coli W3110; full MH pH 7.4): 16 µg/mL

— paper PMC11571207, “Stereorandomized Oncocins with Preserved Ribosome Binding and Antibacterial Activity” (Journal of Medicinal Chemistry, 2024)
